Assay in all cases: AK assay 384-well format, Prestwick library screening
The test system of assay [1] is A. baumannii strain 98-37-09. It counts as cell-based, Acinetobacter baumannii. The note with it: 50 μM final drug concentration; for fold induction at 50 µM: Acinetobacter baumannii, 983709, 3 h.
A further assay deals with E. cloacae. The assay is classed as cell-based, Enterobacter cloacae. The note with it: 50 μM final drug concentration; for fold induction at 50 µM: Enterobacter cloacae, 3 h.
Another assay concerns P. aeruginosa. The assay is classed as cell-based, Pseudomonas aeruginosa. The note with it: 50 μM final drug concentration; for fold induction at 50 µM: Pseudomonas aeruginosa, 3 h.
For assay [2], the system named is S. aureus strain USA300-0114. It counts as cell-based, Staphylococcus aureus. The note with it: 50 μM final drug concentration; for fold induction at 50 µM: Staphylococcus aureus, USA300, 3 h.
A further assay deals with E. coli. The assay is classed as cell-based, Escherichia coli. The note with it: 50 μM final drug concentration; for fold induction at 50 µM: Escherichia coli, 3 h.
The next assay deals with E. faecium. The assay is classed as cell-based, Enterococcus faecium. The note with it: 50 μM final drug concentration; for fold induction at 50 µM: Enterococcus faecium, 3 h.
A further assay relates to K. pneumoniae. The assay is classed as cell-based, Klebsiella pneumoniae. The note with it: 50 μM final drug concentration; for fold induction at 50 µM: Klebsiella pneumoniae, 3 h.
The mark [3] stands for this setting: planktonic A. baumannii, positive cutoff 3-fold increase, read-out: AK-based Prestwick library screening result, A. baumannii (fold increase in extracellular AK activity).
Setting [4] is: planktonic E. cloacae, positive cutoff 3-fold increase, read-out: AK-based Prestwick library screening result, E. cloacae (fold increase in extracellular AK activity).
Setting [5] is: planktonic P. aeruginosa, positive cutoff 3-fold increase, read-out: AK-based Prestwick library screening result, P. aeruginosa (fold increase in extracellular AK activity).
Setting [6] is: planktonic S. aureus, positive cutoff 3-fold increase, read-out: AK-based Prestwick library screening result, S. aureus (fold increase in extracellular AK activity).
Where [7] appears, read: planktonic E. coli, positive cutoff 3-fold increase, read-out: AK-based Prestwick library screening result, E. coli (fold increase in extracellular AK activity).
[8] abbreviates: planktonic E. faecium, positive cutoff 3-fold increase, read-out: AK-based Prestwick library screening result, E. faecium (fold increase in extracellular AK activity).
Setting [9] is: planktonic K. pneumoniae, positive cutoff 3-fold increase, read-out: AK-based Prestwick library screening result, K. pneumoniae (fold increase in extracellular AK activity).
Where [10] appears, read: planktonic A. baumannii, 384-well, cutoff for positive-scoring molecules 3-fold increase, read-out: AK-based Prestwick Library Screening Results: A. baumannii (increase in extracellular AK activity).
The mark [11] stands for this setting: planktonic E. cloacae, 384-well, cutoff for positive-scoring molecules 3-fold increase, read-out: AK-based Prestwick Library Screening Results: E. cloacae (increase in extracellular AK activity).
The mark [12] stands for this setting: planktonic P. aeruginosa, 384-well, cutoff for positive-scoring molecules 3-fold increase, read-out: AK-based Prestwick Library Screening Results: P. aeruginosa (increase in extracellular AK activity).
[13] abbreviates: planktonic S. aureus, 384-well, cutoff for positive-scoring molecules 3-fold increase, read-out: AK-based Prestwick Library Screening Results: S. aureus (increase in extracellular AK activity).
[14] abbreviates: planktonic E. coli, 384-well, cutoff for positive-scoring molecules 3-fold increase, read-out: AK-based Prestwick Library Screening Results: E. coli (increase in extracellular AK activity).
Where [15] appears, read: planktonic E. faecium, 384-well, cutoff for positive-scoring molecules 3-fold increase, read-out: AK-based Prestwick Library Screening Results: E. faecium (increase in extracellular AK activity).
Where [16] appears, read: planktonic K. pneumoniae, 384-well, cutoff for positive-scoring molecules 3-fold increase, read-out: AK-based Prestwick Library Screening Results: K. pneumoniae (increase in extracellular AK activity).
The mark [17] stands for this setting: planktonic, cutoff for positive-scoring molecules 3-fold increase.

Counter-ions that a name gives are not always drawn. Like-named read-outs stand apart in the source and are kept apart here.

As to `CCC(=O)O[C@]1(C(=O)SCF)[C@H](C)C[C@H]2[C@@H]3C[C@H](F)C4=CC(=O)C=C[C@]4(C)[C@@]3(F)[C@@H](O)C[C@@]21C` [Fluticasone propionate], the fold induction at 50 µM is 0.8 in assay [1] (setting [3]); 1.5 in the assay with E. cloacae (setting [4]); 0.8 in the assay on P. aeruginosa (setting [5]); 0.7 in assay [2] (setting [6]); 0.8 in the assay on E. coli (setting [7]); 0.9 with E. faecium (setting [8]). The fold induction at 50 µM in the assay with K. pneumoniae (setting [9]) was determined as 0.7.

For `CCC[C@@H]1C[C@@H](C(=O)N[C@@H]([C@H]2O[C@H](SC)[C@H](O)[C@@H](O)[C@H]2O)[C@H](C)Cl)N(C)C1` [Clindamycin hydrochloride], the fold induction at 50 µM in assay [1] (setting [10]) stood at 1; with E. cloacae (setting [11]) it was 1.7; in the assay with P. aeruginosa (setting [12]), 1.1; in assay [2] (setting [13]), 8.4; in the assay on E. coli (setting [14]), 0.8; with E. faecium (setting [15]), 1.2. In the assay with K. pneumoniae (setting [16]), the fold induction at 50 µM came out at 0.5.

For the compound `CC=CC(=O)N(CC)c1ccccc1C` [Crotamiton], the “AK-based Prestwick Library Screening Results, A. baumannii (fold increase in extracellular AK activity)” value in assay [1] ([…]) amounted to 1.3. In addition, the “AK-based Prestwick Library Screening Results, E. cloacae (fold increase in extracellular AK activity)” value in the assay on E. cloacae ([…]) is recorded as 1.3. Also, the “AK-based Prestwick Library Screening Results, P. aeruginosa (fold increase in extracellular AK activity)” value in the assay on P. aeruginosa ([…]) is 1.3. In addition, the “AK-based Prestwick Library Screening Results, S. aureus (fold increase in extracellular AK activity)” value in assay [2] ([…]) was found to be 1.3. Further, the “AK-based Prestwick Library Screening Results, E. coli (fold increase in extracellular AK activity)” value in the assay with E. coli ([…]) is given as 1.5. In addition, the “AK-based Prestwick Library Screening Results, E. faecium (fold increase in extracellular AK activity)” value in the assay on E. faecium ([…]) was determined as 1.1. In addition, the “AK-based Prestwick Library Screening Results, K. pneumoniae (fold increase in extracellular AK activity)” value with K. pneumoniae ([…]) is reported as 1.1.

As for `CCn1cc(C(=O)O)c(=O)c2cc(F)c(N3CCNC(C)C3)c(F)c21` (stereo not shown) [Lomefloxacin hydrochloride], the fold induction at 50 µM in assay [1] (setting [10]) worked out at 3.8; in the assay on E. cloacae (setting [11]), 3.5; in the assay on P. aeruginosa (setting [12]), 30.2; in assay [2] (setting [13]) it was 3.4; with E. coli (setting [14]) it was 26.8; with E. faecium (setting [15]), 1.5. In the assay with K. pneumoniae (setting [16]), the fold induction at 50 µM worked out at 1.

On to `O=C(CCCN1CCC2(CC1)C(=O)NCN2c1ccccc1)c1ccc(F)cc1` [Spiperone], for which the fold induction at 50 µM is 1.2 in assay [1] (setting [10]); 1.3 in the assay with E. cloacae (setting [11]); 1.2 in the assay on P. aeruginosa (setting [12]); 1 in assay [2] (setting [13]); 1.3 with E. coli (setting [14]); 1.2 with E. faecium (setting [15]). Besides, in the assay with K. pneumoniae (setting [16]), the fold induction at 50 µM was 0.9.

For `CCN(CC)CCc1nc(-c2ccccc2)no1.O=C(O)CC(O)(CC(=O)O)C(=O)O` [Oxalamine citrate salt], the “AK-based Prestwick Library Screening Results, A. baumannii (fold increase in extracellular AK activity)” value in assay [1] (setting [17]) is given as 0.8. Further, the “AK-based Prestwick Library Screening Results, E. cloacae (fold increase in extracellular AK activity)” value with E. cloacae (setting [17]) was 1.2. In addition, the “AK-based Prestwick Library Screening Results, P. aeruginosa (fold increase in extracellular AK activity)” value with P. aeruginosa (setting [17]) is on record as 0.9. For the same compound, in assay [2] (setting [17]), the “AK-based Prestwick Library Screening Results, S. aureus (fold increase in extracellular AK activity)” value is listed as 0.8. Moreover, the “AK-based Prestwick Library Screening Results, E. coli (fold increase in extracellular AK activity)” value in the assay on E. coli (setting [17]) worked out at 0.9. Further, the “AK-based Prestwick Library Screening Results, E. faecium (fold increase in extracellular AK activity)” value with E. faecium (setting [17]) worked out at 0.8. For the same compound, in the assay on K. pneumoniae (setting [17]), the “AK-based Prestwick Library Screening Results, K. pneumoniae (fold increase in extracellular AK activity)” value is given as 0.7.

With `COc1ccc2c(c1OC)CN1CCc3cc4c(cc3C1C2)OCO4` (stereo not shown) [(d,l)-Tetrahydroberberine], in assay [1] (planktonic, […]), the “AK-based Prestwick Library Screening Results, A. baumannii (fold increase in extracellular AK activity)” value was 0.9. Moreover, the “AK-based Prestwick Library Screening Results, E. cloacae (fold increase in extracellular AK activity)” value in the assay on E. cloacae (planktonic, […]) is reported as 1.3. Besides, in the assay on P. aeruginosa (planktonic, […]), the “AK-based Prestwick Library Screening Results, P. aeruginosa (fold increase in extracellular AK activity)” value was 0.8. The “AK-based Prestwick Library Screening Results, S. aureus (fold increase in extracellular AK activity)” value in assay [2] (planktonic, […]) stood at 0.7. The “AK-based Prestwick Library Screening Results, E. coli (fold increase in extracellular AK activity)” value in the assay with E. coli (planktonic, […]) was found to be 0.8. Also, the “AK-based Prestwick Library Screening Results, E. faecium (fold increase in extracellular AK activity)” value in the assay on E. faecium (planktonic, […]) was 0.9. Besides, in the assay on K. pneumoniae (planktonic, […]), the “AK-based Prestwick Library Screening Results, K. pneumoniae (fold increase in extracellular AK activity)” value amounted to 0.7.

Regarding `CC(CNC1CCCCC1)OC(=O)c1ccccc1` (stereo not shown) [Hexylcaine hydrochloride], the fold induction at 50 µM was 1.3 in assay [1] (cutoff for positive-scoring molecules 3-fold increase, read-out: AK-based Prestwick Library Screening Results, A. baumannii (fold increase in extracellular AK activity)); 1.4 with E. cloacae (cutoff for positive-scoring molecules 3-fold increase, read-out: AK-based Prestwick Library Screening Results, E. cloacae (fold increase in extracellular AK activity)); 1.1 with P. aeruginosa (cutoff for positive-scoring molecules 3-fold increase, read-out: AK-based Prestwick Library Screening Results, P. aeruginosa (fold increase in extracellular AK activity)); 1.3 in assay [2] (cutoff for positive-scoring molecules 3-fold increase, read-out: AK-based Prestwick Library Screening Results, S. aureus (fold increase in extracellular AK activity)); 1.2 with E. coli (cutoff for positive-scoring molecules 3-fold increase, read-out: AK-based Prestwick Library Screening Results, E. coli (fold increase in extracellular AK activity)); 1 with E. faecium (cutoff for positive-scoring molecules 3-fold increase, read-out: AK-based Prestwick Library Screening Results, E. faecium (fold increase in extracellular AK activity)). Also, in the assay with K. pneumoniae (cutoff for positive-scoring molecules 3-fold increase, read-out: AK-based Prestwick Library Screening Results, K. pneumoniae (fold increase in extracellular AK activity)), the fold induction at 50 µM was found to be 1.

On to `CC[N+](C)(CC)CCOC(=O)C1c2ccccc2Oc2ccccc21` [Methantheline bromide], for which the fold induction at 50 µM in assay [1] (setting [3]) was found to be 0.8; in the assay on E. cloacae (setting [4]), 1.1; with P. aeruginosa (setting [5]), 0.9; in assay [2] (setting [6]) it was 0.7; in the assay on E. coli (setting [7]), 0.9; in the assay with E. faecium (setting [8]) it was 0.9. The fold induction at 50 µM in the assay with K. pneumoniae (setting [9]) was determined as 0.8.

In the case of `CN1CCCN(C(c2ccccc2)c2ccc(Cl)cc2)CC1` (stereo not shown) [Homochlorcyclizine dihydrochloride], the fold induction at 50 µM in assay [1] (planktonic A. baumannii, 384-well, […], read-out: AK-based Prestwick Library Screening Results: A. baumannii (increase in extracellular AK activity)) was 1.2; in the assay on E. cloacae (planktonic E. cloacae, 384-well, […], read-out: AK-based Prestwick Library Screening Results: E. cloacae (increase in extracellular AK activity)), 1.8; with P. aeruginosa (planktonic P. aeruginosa, 384-well, […], read-out: AK-based Prestwick Library Screening Results: P. aeruginosa (increase in extracellular AK activity)), 1.2; in assay [2] (planktonic S. aureus, 384-well, […], read-out: AK-based Prestwick Library Screening Results: S. aureus (increase in extracellular AK activity)), 1; in the assay on E. coli (planktonic E. coli, 384-well, […], read-out: AK-based Prestwick Library Screening Results: E. coli (increase in extracellular AK activity)), 1.5; in the assay with E. faecium (planktonic E. faecium, 384-well, […], read-out: AK-based Prestwick Library Screening Results: E. faecium (increase in extracellular AK activity)), 1.2. The fold induction at 50 µM in the assay with K. pneumoniae (planktonic K. pneumoniae, 384-well, […], read-out: AK-based Prestwick Library Screening Results: K. pneumoniae (increase in extracellular AK activity)) is 1.1.

The record behind these values is patent US10004701B2, “Methods and compositions for treating infection” (UNIVERSITY OF ROCHESTER, priority 2012, dated 2018).
